Converted amounts (≈) assume the structure as drawn.
Experiments:
[1] = (§1) Toxicity in Artemia salina; format: organism-based; settings: in vivo, read-out: ED50 (the source's name)
[2] = system: A549; assay: Cytotoxicity against human A549 cells after 7 days by MTT assay; format: functional; settings: for EC50: Homo sapiens, A549, 168 h, read-out: ED50 (the source's name)
[3] = system: MCF7; assay: Cytotoxicity against human MCF7 cells after 7 days by MTT assay; format: functional; settings: for EC50: Homo sapiens, MCF7, 168 h, read-out: ED50 (the source's name)
[4] = system: HT-29; assay: Cytotoxicity against human HT-29 cells after 7 days by MTT assay; format: functional; settings: for EC50: Homo sapiens, HT-29, 168 h, read-out: ED50 (the source's name)
[5] = system: A498; assay: Cytotoxicity against human A498 cells after 7 days by MTT assay; format: functional; settings: for EC50: Homo sapiens, A498, 168 h, read-out: ED50 (the source's name)
[6] = system: PC-3; assay: Cytotoxicity against human PC3 cells after 7 days by MTT assay; format: functional; settings: for EC50: Homo sapiens, PC-3, 168 h, read-out: ED50 (the source's name)
[7] = system: MIA PaCa-2; assay: Cytotoxicity against human MIAPaCa2 cells after 7 days by MTT assay; format: functional; settings: for EC50: Homo sapiens, MIA PaCa-2, 168 h, read-out: ED50 (the source's name)
[8] = system: Artemia salina; assay: as §1; format: organism-based; settings: in vivo

Structure (SMILES): CCCCCCCCCCCC[C@@H](O)[C@H]1CC[C@H]([C@H](O)CCCC[C@H](O)CCCCC[C@@H](O)CC2=CC(C)OC2=O)O1 (some centres undefined) [ANNONACIN]
- LC50 [1]: 0.46 µg/mL (≈ 0.771 µM)
- ED50 [2]: 1.32 µg/mL (≈ 2.21 µM)
- ED50 [3]: 1.96 µg/mL (≈ 3.28 µM)
- ED50 [4]: 1.18 µg/mL (≈ 1.98 µM)
- ED50 [5]: 1.16 µg/mL (≈ 1.94 µM)
- ED50 [6]: 1.33 µg/mL (≈ 2.23 µM)
- ED50 [7]: 1.9 µg/mL (≈ 3.18 µM)

Structure (SMILES): CCCCC[C@H](O)[C@H](O)CCC[C@H](O)[C@H]1CC[C@H]([C@H]2CC[C@H]([C@H](O)CCCCCCCCCCCCC3=C[C@H](C)OC3=O)O2)O1 [PURPUREDIOLIN]
- ED50 [8]: 7 ×10⁻² ug/ml
- EC50 [2]: 0.443 µg/mL (≈ 0.693 µM)
- EC50 [3]: 0.916 µg/mL (≈ 1.43 µM)
- ED50 [4]: 1 ×10⁻⁷ ug/ml
- EC50 [5]: 1.36 µg/mL (≈ 2.13 µM)
- EC50 [6]: 0.353 µg/mL (≈ 0.552 µM)
- EC50 [7]: 1.44 µg/mL (≈ 2.25 µM)

Structure (SMILES): CCCCCCCCCC[C@H](O)[C@H]1CC[C@H]([C@H]2CC[C@H]([C@H](O)CCCC[C@H](O)CCCCC[C@@H](O)CC3=C[C@H](C)OC3=O)O2)O1 [ANNOGLAUCIN]
- ED50 [8]: 2.2 ×10⁻² ug/ml
- EC50 [2]: 1.08 µg/mL (≈ 1.69 µM)
- EC50 [3]: 1.56 µg/mL (≈ 2.44 µM)
- ED50 [4]: 1 ×10⁻⁷ ug/ml
- EC50 [5]: 1.01 µg/mL (≈ 1.58 µM)
- EC50 [6]: 0.356 µg/mL (≈ 0.557 µM)
- EC50 [7]: 1.45 µg/mL (≈ 2.27 µM)

Structure (SMILES): CCCCC[C@H](O)CCCC[C@H](O)[C@H]1CC[C@H]([C@H]2CC[C@H]([C@H](O)CCCC[C@H](O)CCCCCCCC3=C[C@H](C)OC3=O)O2)O1 [PURPURENIN]
- ED50 [8]: 2.9 ×10⁻² ug/ml
- EC50 [2]: 1.29 µg/mL (≈ 2.02 µM)
- EC50 [3]: 1.67 µg/mL (≈ 2.61 µM)
- EC50 [4]: 0.316 µg/mL (≈ 0.495 µM)
- EC50 [5]: 1.25 µg/mL (≈ 1.96 µM)
- EC50 [6]: 1.07 µg/mL (≈ 1.67 µM)
- EC50 [7]: 1.98 µg/mL (≈ 3.1 µM)

Structure (SMILES): COc1cccc2c1C(=O)c1c(O)c3c(c(O)c1C2=O)C[C@@](O)(C(=O)CO)C[C@@H]3O[C@H]1C[C@H](N)[C@H](O)[C@H](C)O1 [DOXORUBICIN]
- EC50 [2]: 0.00367 µg/mL (≈ 0.00675 µM)
- EC50 [3]: 0.212 µg/mL (≈ 0.39 µM)
- EC50 [4]: 0.00966 µg/mL (≈ 0.0178 µM)
- EC50 [5]: 0.00198 µg/mL (≈ 0.00364 µM)
- EC50 [6]: 0.0227 µg/mL (≈ 0.0418 µM)
- EC50 [7]: 0.00145 µg/mL (≈ 0.00267 µM)

From ChEMBL document CHEMBL1150876, “Purpurediolin and purpurenin, two new cytotoxic adjacent bis-tetrahydrofuran annonaceous acetogenins from the seeds of Annona purpurea” (J Nat Prod, 1998)
